Results on 9 compounds are retold here after patent US5556990A, “Polyarylcarbamoylaza- and -carbamoylalkanedioic acids” (Rhone-Poulenc Rorer Pharmaceuticals Inc., priority 1994, dated 1996).

Counter-ions that a name gives are not always drawn.

This test concerns the target T1, squalene synthase (Rattus norvegicus, UniProt Q02769).
T1 construct: Microsomes are prepared by centrifugation (100,000 g) and then resuspended in the assay buffer; from tissue; host or cells: liver microsomes of male Sprague-Dawley rats (animals from Taconic Farms)
T1 sequence (Q02769 1-416): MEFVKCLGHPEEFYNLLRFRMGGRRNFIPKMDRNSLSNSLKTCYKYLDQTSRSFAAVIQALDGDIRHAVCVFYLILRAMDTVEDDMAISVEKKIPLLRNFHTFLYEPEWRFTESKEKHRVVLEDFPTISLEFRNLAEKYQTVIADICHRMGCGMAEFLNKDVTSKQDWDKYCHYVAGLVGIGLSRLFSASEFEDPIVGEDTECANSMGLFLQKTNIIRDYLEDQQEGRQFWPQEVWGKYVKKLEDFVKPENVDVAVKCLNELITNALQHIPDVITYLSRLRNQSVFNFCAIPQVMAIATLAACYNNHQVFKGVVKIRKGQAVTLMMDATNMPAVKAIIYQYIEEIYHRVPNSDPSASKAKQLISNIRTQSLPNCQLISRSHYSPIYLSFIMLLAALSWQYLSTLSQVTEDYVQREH
In words: Squalene Synthase Inhibition Assay (rat liver microsomes, [3H]FPP substrate, HEPES buffer). The test is classed as biochemical, male Sprague-Dawley rats. The protocol:
Squalene Synthase Inhibition Assay
The squalene synthase assay used is described by Amin et al. in "Bisphosphonates Used for the Treatment of Bone Disorders Inhibit Squalene Synthase and Cholesterol Biosynthesis," Journal of Lipid Research, 33, 1657-1663 (1992).
I. Preparation of Assay Substances:
Test solutions are prepared fresh in 100% DMSO or dH2 O. Subsequent dilutions are made in the same solvent. Compounds are tested initially at 1 μM (final concentrations).
Potassium Phosphate (50 mM,) pH 7.4, and HEPES (4-(2-hydroxyethyl)-1-piperazineethanesulfonic acid, 50 mM) pH 7.4 stock buffers are prepared and stored at 4° C. until use.
C) Microsomal Enzyme Preparation:
Fresh livers from male Sprague-Dawley rats (Taconic Farms, Germantown, N.Y.) weighing 150-200 g are collected after exsanguination. All subsequent procedures are performed at 4° C. The liver is homogenized in the assay buffer (50 mM, pH 7.4). Cellular fractions are separated as described by Popjak, G. in "Enzymes of sterol biosynthesis in liver and intermediates of sterol biosynthesis," Meth. Enzymol. 15 393-454 (1969). Microsomes are prepared by centrifugation (100,000 g) and then resuspended in the assay buffer. Microsomes are rehomogenized with a motor-driven Teflon pestle to yield a uniform suspension (~30 mg protein/ml), aliquoted, and stored at -80° C. until use.
II. Squalene Synthase Assay
The procedure is a modification of those described by Popjack (vida supra) and Poulter et al. in "Squalene synthase. Inhibition by ammonium analogues of carbocationic intermediates in the conversion of presqualene diphosphate to squalene" J. Am. Chem. Soc. 111, 3734-3739 (1989). The assay is performed in 1 ml of 50 mM assay buffer, pH 7.4, containing 10 mM MgCl2, 0.5 mM NADPH, microsomes (30 μg protein), a test compound dissolved in distilled water or dimethylsulfoxide, and substrate [^3 H]FPP (0.5 μM, 0.27 Ci/mmol) in a 16×125 mm glass screw-cap tube. All components except [3H]FPP are preincubated for 10 min. at 37° C. The reaction is initiated by the addition of [^3 H]FPP. After 10 min at 37° C., the reaction is terminated by the addition of 1 ml 15% KOH in ethanol. The tubes are incubated at 65° C. for 30 min. to solubilize proteins. The mixture is extracted with 5 ml petroleum ether for 10 min. After freezing the lower aqueous phase, the organic phase is transferred to glass tubes containing 2 ml distilled water. After washing the lower aqueous phase is frozen and the petroleum ether phase is removed and counted with 10 ml Ready Safe liquid scintillation cocktail using a Beckman LS-9000 scintillation counter. DPM values are adjusted against a blank (no enzyme).
The difference in radioactivity in the presence and absence of the test compound is used to determine the level of inhibition. The IC50 values are calculated using a linear regression program of Tallarida and Murray (1987). Tallarida, R. J. and Murray, R. B. Manual of pharmacologic calculations with computer programs. Springer-Verlag, 1987.
Background: Microsomes from liver hold many membrane-bound enzymes, among them those of drug oxidation.
By IC50 is commonly meant the point on the concentration scale where inhibition reaches its midpoint. “4-{3-[4-(2-methoxyquinolin-6-yl)phenyl]-1,2,5,6-tetrahydro-pyridylcarbonyl}-3-hydroxy-3-carboxybutanoic acid, disodium salt [Example 12]” displayed an IC50 of 0.036 µM.
`CCOC(=O)CC(O)(CC(=O)N[C@@H]1CCCC[C@H]1OCc1ccc(-c2nc3ccccc3o2)cc1)C(=O)OCC` (relative stereo) displayed an IC50 of 10 µM.
In turn, `O=C(O)CC(O)(CC(=O)N[C@@H]1CCCC[C@H]1OCc1ccc(-c2nc3ccccc3o2)cc1)C(=O)O` (relative stereo) [Example 5, 4-[2-α-(4-Benzoxazol-2-ylbenzyloxy)cyclohexyl-β-carbamoyl]-3-hydroxy-3-carboxybutyric acid] showed an IC50 of 0.19 µM.
For `O=C(O)CC(O)(CC(=O)N1CCCC(O)(c2ccc(-c3ccc4ccccc4c3)cc2)C1)C(=O)O` (stereo not drawn) [Example 1, 4-[3-Hydroxy-3-(4-naphth2-ylphenyl)piperidin-1-ylcarbonyl]-3-hydroxy-3-carboxybutanoic acid] the value was 0.027 µM; for `O=C(O)CC(O)(CC(=O)N1CCCC(COCc2ccc(-c3nc4ccccc4o3)cc2)C1)C(=O)O` (stereo not drawn) [Example 19, 4-[3-(4-(Benzoxazol-2-yl)benzyloxymethyl)piperidin-1-ylcarbonyl]-3-hydroxy-3-carboxybutanoic acid, disodium salt], 0.051 µM.
For `CC[C@@H](COCc1ccc(-c2nc3ccccc3o2)cc1)NC(=O)CC(O)(CC(=O)O)C(=O)O` (stereo partly drawn) [Example 22, 3-{N-[1-(4-Benzoxazol-2-ylbenzyloxy)but-2-yl]carbamoyl}-3-hydroxy-3-carboxybutanoic acid, disodium salt] the value was 0.077 µM; for `COc1cccc(-c2ccc(C3(O)CCCN(C(=O)CC(O)(CC(=O)O)C(=O)O)C3)cc2)c1` (stereo not drawn) [Example 24, disodium salt], 0.1 µM; for `CC(O)(CNC(=O)C(O)(CC(=O)O)CC(=O)O)c1ccc(-c2ccc3ccccc3c2)cc1` (stereo not drawn) [Example 28, 3-Hydroxy-3-{-N-[2-hydroxy-2-(4-naphthalen-2-yl-phenyl)prop-2-yl]carbamoyl}pentandioic acid, disodium salt], 0.1 µM.
The result for `O=C(O)CC(NC(=O)NC1CCCCC1OCc1ccc(-c2nc3ccccc3o2)cc1)C(=O)O` [Example 30, 3-(R)-(N-{2-α-[4-(Benzoxazol-2-yl)benzyloxy]cyclohexyl}-β-carbamoylaza)-3-carboxypropanoic acid] reads 2.6 µM.
